Assay results published in patent US7863446B2, “Heterocycles” (Orchid Research Laboratories Limited, priority 2006, dated 2011).

Assays:
[1] = test system: Male wistar rats; experiment: Carrageenan induced paw edema test in rat; format: in vivo; details: oral, 3 hours after carrageenan
Description: Carrageenan Induced Paw Edema Test in Rat
The carrageenan paw edema test was performed as described by Winter et al (Proc. Soc. Exp. Biol. Med, 111, 544, 1962). Male wistar rats were selected with body weights equivalent within each group. The rats were fasted for 18 hours with free access to water. The rats were dosed orally with the test compound suspended in the vehicle containing 0.25% carboxymethylcellulose and 0.5% Tween 80. The control rats were administered with vehicle alone. After an hour, the rats were injected with 0.1 ml of 1% Carrageenan solution in 0.9% saline into the sub-plantar surface of the right hind paw. Paw volume was measured using digital plethysmograph before and after 3 hours of carrageenan injection. The average of foot swelling in drug treated animals was compared with that of the control animals. Anti-inflammatory activity was expressed as the percentage inhibition of edema compared with control group [Arzneim-Forsch/Drug Res., 43 (I), 1, 44-50, 1993; Representative results of edema inhibition are shown in the Table VI.

[2] = test system: HCT-116; experiment: Anti-cancer screen (MTT), HCT-116; format: cell-based; details: Homo sapiens, HCT-116, 48 hours
Description: Experimental drugs are screened for anti-cancer activity in three cell lines for their GI50, TG1 and LC50 values (using 5 concentrations for each compound). The cell lines are maintained in DMEM containing 10% fetal bovine serum. 96 well microtiter plates are inoculated with cells in […] for 24 hours at 37° C., 5% CO2, 95% air and 100% relative humidity. 5000 HCT116 cells/well, 5000 NCIH460 cells/well, 10000 U251 cells/well and 5000 MDAMB231 cells/well are plated. A separate plate with these cell lines is also inoculated to determine cell viability before the addition of the compounds (T0).
Addition of Experimental Drugs
Following 24-hour incubation, experimental drugs are added to the 96 well plates. Each plate contains one of the above cell lines and the following in triplicate: 5 different concentrations (0.01, 0.1, 1, 10 and 100 μM) of 4 different compounds, appropriate dilutions of a cytotoxic standard and control (untreated) wells. Compounds are dissolved in dimethylsulfoxide (DMSO) to make 20 mM stock solutions, on the day of drug addition and frozen at −20° C. Serial dilutions of these 20 mM stock solutions are made in complete growth medium such that 100 μL of these drug solutions in medium, of final concentrations equaling 0.01, 0.1, 1, 10 and 100 μM can be added to the cells in triplicate. Standard drugs whose anti-cancer activity has been well documented and which are regularly used are doxorubicin and SAHA.
Cells are incubated with compounds for 48 hours followed by the addition of 10 μL 3-(4,5-Dimethyl-2-thiazolyl)-2,5-diphenyl-2H-tetrazolium (MTT) solution per well and a subsequent incubation at 37° C., 5% CO2, 95% air and 100% relative humidity, protected from light. After 4 hours, well contents are aspirated carefully followed by addition of 150 μL DMSO per well. Plates are agitated to ensure solution of the formazan crystals in DMSO and absorbance read at 570 nm.
Calculation of GI50, TGI and LC50
Percent growth is calculated for each compound's concentration relative to the control and zero measurement wells (T0; viability right before compound addition).
If a test well's O.D. value is greater than the T0 measurement for that cell line % Growth=(test−zero)/(control−zero)×100
If a test well's O.D. value is lower than the T0 measurement for that cell line, then % Growth=(test−zero)/zero×100 Plotting % growth versus experimental drug concentration, GI50 is the concentration required to decrease % growth by 50%; TGI is the concentration required to decrease % growth by 100% and LC50 is the concentration required to decrease % growth by 150%.

GI50 [2]: 2 µM
Compound: CNS(=O)(=O)c1ccc(-c2c(Cl)nc(C(F)(F)F)nc2-c2ccc(S(C)(=O)=O)cc2)cc1 [Example 4, 4-{4-Chloro-6-[4-(methylsulfonyl)phenyl]-2-(trifluoromethyl)pyrimidin-5-yl}-N-methylbenzenesulfonamide]
Inhibition of edema (%) at 5 mg/kg [1]: 17.12%
